Experimental data: the NIST ThermoML archive (doi:10.1016/j.jct.2007.11.011)
Numbers after ± are expanded uncertainties.

Experiment: xn = mol fraction of the nth substance listed
Conditions: Liquid

CCOS(=O)(=O)[O-].CCn1cc[n+](C)c1 [1-ethyl-3-methylimidazolium ethyl sulfate] + CO
mass density [kg/m3]
Conditions | 100 kPa | 2500 kPa | 5000 kPa | 10000 kPa | 15000 kPa | 20000 kPa | 25000 kPa | 30000 kPa | 35000 kPa
283.15 K, x1 = 0.04781 | 895.14 ± 0.57 | 896.98 ± 0.6 | 898.83 ± 0.64 | 902.39 ± 0.71 | 905.85 ± 0.78 | 909.18 ± 0.85 | 912.41 ± 0.92 | 915.51 ± 0.98 | 918.59 ± 1
283.15 K, x1 = 0.1026 | 968.87 ± 0.48 | 970.47 ± 0.48 | 972.09 ± 0.49 | 975.24 ± 0.5 | 978.32 ± 0.5 | 981.31 ± 0.51 | 984.2 ± 0.51 | 987.02 ± 0.5 | 989.77 ± 0.54
283.15 K, x1 = 0.1977 | 1052.5 ± 0.52 | 1053.84 ± 0.54 | 1055.23 ± 0.56 | 1057.94 ± 0.6 | 1060.59 ± 0.66 | 1063.21 ± 0.72 | 1065.75 ± 0.79 | 1068.22 ± 0.87 | 1070.64 ± 0.95
283.15 K, x1 = 0.2432 | 1081.02 ± 0.55 | 1082.31 ± 0.58 | 1083.64 ± 0.61 | 1086.24 ± 0.69 | 1088.8 ± 0.77 | 1091.31 ± 0.87 | 1093.76 ± 0.97 | 1096.15 ± 1.1 | 1098.5 ± 1.2
283.15 K, x1 = 0.3026 | 1111.91 ± 0.59 | 1113.14 ± 0.64 | 1114.41 ± 0.68 | 1116.86 ± 0.79 | 1119.26 ± 0.91 | 1121.66 ± 1.1 | 1123.99 ± 1.2 | 1126.28 ± 1.4 | 1128.48 ± 1.5
283.15 K, x1 = 0.3887 | 1145.18 ± 0.64 | 1146.33 ± 0.7 | 1147.51 ± 0.77 | 1149.84 ± 0.92 | 1152.14 ± 1.1 | 1154.4 ± 1.3 | 1156.62 ± 1.5 | 1158.82 ± 1.7 | 1160.95 ± 1.9
283.15 K, x1 = 0.485 | 1173.12 ± 0.69 | 1174.24 ± 0.77 | 1175.35 ± 0.85 | 1177.57 ± 1 | 1179.75 ± 1.2 | 1181.92 ± 1.5 | 1184.04 ± 1.7 | 1186.14 ± 1.9 | 1188.17 ± 2.2
283.15 K, x1 = 0.589 | 1195.65 ± 0.73 | 1196.74 ± 0.81 | 1197.79 ± 0.91 | 1199.93 ± 1.1 | 1202.04 ± 1.4 | 1204.13 ± 1.6 | 1206.18 ± 1.9 | 1208.21 ± 2.1 | 1210.17 ± 2.4
283.15 K, x1 = 0.7289 | 1218.63 ± 0.77 | 1219.71 ± 0.87 | 1220.74 ± 0.97 | 1222.79 ± 1.2 | 1224.82 ± 1.5 | 1226.84 ± 1.8 | 1228.82 ± 2.1 | 1230.77 ± 2.4 | 1232.67 ± 2.6
283.15 K, x1 = 0.8521 | 1233.5 ± 0.8 | 1234.47 ± 0.9 | 1235.48 ± 1 | 1237.48 ± 1.3 | 1239.47 ± 1.6 | 1241.45 ± 1.9 | 1243.37 ± 2.2 | 1245.28 ± 2.5 | 1247.16 ± 2.8
283.15 K, x1 = 0.9397 | 1242.49 ± 0.82 | 1243.52 ± 0.93 | 1244.49 ± 1.1 | 1246.47 ± 1.4 | 1248.43 ± 1.6 | 1250.39 ± 2 | 1252.3 ± 2.3 | 1254.18 ± 2.6 | 1256.03 ± 2.9
293.15 K, x1 = 0.04781 | 886.34 ± 0.58 | 888.27 ± 0.62 | 890.2 ± 0.66 | 893.93 ± 0.74 | 897.52 ± 0.82 | 900.98 ± 0.9 | 904.34 ± 0.97 | – | –
293.15 K, x1 = 0.1026 | 960.49 ± 0.49 | 962.13 ± 0.5 | 963.82 ± 0.5 | 967.09 ± 0.52 | 970.28 ± 0.53 | 973.36 ± 0.54 | 976.36 ± 0.54 | – | –
293.15 K, x1 = 0.1977 | 1044.52 ± 0.51 | 1045.92 ± 0.52 | 1047.38 ± 0.54 | 1050.18 ± 0.58 | 1052.91 ± 0.63 | 1055.6 ± 0.68 | 1058.22 ± 0.75 | – | –
293.15 K, x1 = 0.2432 | 1073.23 ± 0.54 | 1074.55 ± 0.56 | 1075.93 ± 0.59 | 1078.61 ± 0.66 | 1081.24 ± 0.74 | 1083.82 ± 0.83 | 1086.34 ± 0.92 | – | –
293.15 K, x1 = 0.3026 | 1104.25 ± 0.58 | 1105.51 ± 0.62 | 1106.81 ± 0.67 | 1109.35 ± 0.77 | 1111.82 ± 0.88 | 1114.27 ± 1 | 1116.67 ± 1.1 | – | –
293.15 K, x1 = 0.3887 | 1137.8 ± 0.63 | 1138.99 ± 0.69 | 1140.22 ± 0.75 | 1142.61 ± 0.89 | 1144.95 ± 1 | 1147.27 ± 1.2 | 1149.55 ± 1.4 | – | –
293.15 K, x1 = 0.485 | 1165.78 ± 0.68 | 1166.91 ± 0.75 | 1168.06 ± 0.83 | 1170.35 ± 1 | 1172.59 ± 1.2 | 1174.79 ± 1.4 | 1176.97 ± 1.6 | – | –
293.15 K, x1 = 0.589 | 1188.53 ± 0.71 | 1189.55 ± 0.8 | 1190.65 ± 0.89 | 1192.84 ± 1.1 | 1194.99 ± 1.3 | 1197.11 ± 1.6 | 1199.2 ± 1.8 | – | –
293.15 K, x1 = 0.7289 | 1211.6 ± 0.75 | 1212.63 ± 0.85 | 1213.69 ± 0.95 | 1215.79 ± 1.2 | 1217.88 ± 1.5 | 1219.92 ± 1.7 | – | – | –
293.15 K, x1 = 0.8521 | 1226.42 ± 0.78 | 1227.39 ± 0.89 | 1228.45 ± 1 | 1230.49 ± 1.3 | 1232.52 ± 1.6 | 1234.53 ± 1.8 | – | – | –
293.15 K, x1 = 0.9397 | 1235.42 ± 0.8 | 1236.43 ± 0.91 | 1237.46 ± 1 | 1239.51 ± 1.3 | 1241.5 ± 1.6 | 1243.48 ± 1.9 | – | – | –
